Measurements published in publication PMC6482079 (European journal of pharmaceutical sciences : official …, 2019).

Experiments:
[1] = system: B/Wisconsin/1/2010 (Yamagata); assay: Plaque reduction assay in ST6Gal I-overexpressing MDCK cells; type: cell-based, influenza B virus; details: for Drug sensitivity: sensitivity of the strain to the named drug
[2] = system: B/Bris/60/2008 (Victoria); assay: as above; type: cell-based, influenza B virus; details: for Drug sensitivity: sensitivity of the strain to the named drug

Row | Compound | Drug sensitivity [1] | Drug sensitivity [2] | SI (selectivity index) ([1]; CC50/EC50) | EC50 ([1]; Influenza B virus, MDCK) | SI (selectivity index) ([2]; CC50/EC50) | EC50 ([2]; Influenza B virus, MDCK)
1 | NC12CC3CC(CC(C3)C1)C2 [Amantadine, amantadine] | Resistant | Resistant |  |  |  | 
2 | CCC(CC)O[C@@H]1C=C(C(=O)O)C[C@H](N)[C@H]1NC(C)=O [Oseltamivir carboxylate] | Sensitive | Sensitive |  |  |  | 
3 | Cc1cc(OCc2nnc(SC3CCCC3)n2-c2cccnc2)ccc1-c1ccc(S(C)(=O)=O)cc1 [NMS-873] |  |  | 78 | 35 ± 5 nM | 97 | 28 ± 8 nM
